# Reference: patent US20260022142A1, “MACROCYCLIC IMMUNOMODULATORS” (Bristol-Myers Squibb Company, priority 2022, published 2026)
# Bridge positions count the residues as written; N and C are the ends. Square brackets hold non-standard residues; d marks the D form. Peptide text beside a SMILES is read from it. * marks the point of attachment. ξ: configuration not given here. Bip = N[C@@H](Cc1ccc(-c2ccccc2)cc1)C(=O)O; NH(CH2)14COOH = O=C(O)CCCCCCCCCCCCCCN*; Phe(3-Me) = Cc1cccc(C[C@H](N)C(=O)O)c1; NH(CH2)12COOH = O=C(O)CCCCCCCCCCCCN*; hArg = N=C(N)NCCCC[C@H](N)C(=O)O; Cha = N[C@@H](CC1CCCCC1)C(=O)O; Cit = NC(=O)NCCC[C@H](N)C(=O)O; Ile(3ξ) = CCC(C)[C@H](N)C(=O)O; Thr(3ξ) = CC(O)[C@H](N)C(=O)O; 12Ado = NCCCCCCCCCCCC(=O)O; Carboxymethyl = O=C(O)C*; Orn = NCCC[C@H](N)C(=O)O; Aun = NCCCCCCCCCCC(=O)O; Dab = NCC[C@H](N)C(=O)O; Dap = NC[C@H](N)C(=O)O; AEEA = NCCOCCOCC(=O)O
# Target: T1, PD-1/PD-L1 interaction (PE-labeled human PD-L1-Ig binding to Jurkat cell line over-expressing human PD-1) (Homo sapiens, UniProt Q15116)
# T1 construct: expressed in transfected cells; host or cells: Jurkat
# Test: Jurkat-PD-1 Cell Binding High-Content Screening Assay (CBA)
# Format: cell-based
# Settings: Jurkat cell line over-expressing human PD-1; PE-labeled PD-L1-Ig 20 nM final; read-out: Jurkat hPD1-PDL1 IC50
# Outline: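 Human PD-L1-Ig carrying a covalent PE label on its Ig tag serves as the probe, applied at 20 nM final to compound-treated (2 h, 37° C) Jurkat-hPD-1 cells in medium with 10% fetal calf serum. After one hour, fixation and nuclear staining precede high-content image analysis.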
# T1 sequence (Q15116 25-288): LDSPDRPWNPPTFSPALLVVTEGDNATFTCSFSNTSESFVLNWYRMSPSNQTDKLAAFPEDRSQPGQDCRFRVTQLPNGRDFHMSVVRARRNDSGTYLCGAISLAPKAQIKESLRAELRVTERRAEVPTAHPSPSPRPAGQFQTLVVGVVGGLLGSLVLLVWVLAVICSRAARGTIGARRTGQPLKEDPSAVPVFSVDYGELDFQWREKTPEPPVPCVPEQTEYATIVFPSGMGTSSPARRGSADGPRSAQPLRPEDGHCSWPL
row,SMILES,IC50 [nM]
1,CCC(C)[C@@H]1NC(=O)[C@H](CC2CCCCC2)NC(=O)[C@H](CCN)NC(=O)[C@@H](CC(C)C)NC(=O)[C@H](CCCN)NC(=O)[C@H](C(C)CC)NC(=O)[C@H](Cc2ccc(-c3ccccc3)cc2)NC(=O)[C@H](C(C)CC)NC(=O)[C@H](Cc2c[nH]c3ccccc23)NC(=O)[C@H](CC(=O)O)NC(=O)[C@H](Cc2ccc(OCC(=O)O)cc2)NC(=O)[C@H](C(C)O)NC(=O)CSC[C@@H](C(=O)N[C@H](CC(N)=O)C(=O)NCCOCCOCC(=O)N[C@@H](CCCN)C(=O)NCCCCCCCCCCC(=O)O)NC(=O)[C@H](CO)NC1=O (stereo partly drawn) [Compound 3120] ({CH2CO}-[Thr(3ξ)]Y(Carboxymethyl)DW[Ile(3ξ)][Bip][Ile(3ξ)][Orn][dL][Dab][Cha][Ile(3ξ)]SC[dN][AEEA][Orn][Aun]-OH; thioether N-14),24.8
2,CCC(C)[C@@H]1NC(=O)[C@H](CC2CCCCC2)NC(=O)[C@H](CCN)NC(=O)[C@@H](CC(C)C)NC(=O)[C@H](CCCN)NC(=O)[C@H](C(C)CC)NC(=O)[C@H](Cc2ccc(-c3ccccc3)cc2)NC(=O)[C@H](C(C)CC)NC(=O)[C@H](Cc2c[nH]c3ccccc23)NC(=O)[C@H](CC(=O)O)NC(=O)[C@H](Cc2ccc(OCC(=O)O)cc2)NC(=O)[C@H](C(C)O)NC(=O)CSC[C@@H](C(=O)N[C@@H](CN)C(=O)NCCOCCOCC(=O)N[C@@H](CCCN)C(=O)NCCCCCCCCCCC(=O)O)NC(=O)[C@H](CO)NC1=O (stereo partly drawn) [Compound 3121] ({CH2CO}-[Thr(3ξ)]Y(Carboxymethyl)DW[Ile(3ξ)][Bip][Ile(3ξ)][Orn][dL][Dab][Cha][Ile(3ξ)]SC[Dap][AEEA][Orn][Aun]-OH; thioether N-14),10.4
3,Cc1cccc(C[C@@H]2NC(=O)[C@H](CC(=O)O)NC(=O)[C@H](Cc3ccc(OCC(=O)O)cc3)NC(=O)[C@H](CN)NC(=O)CSC[C@@H](C(=O)N[C@@H](CCCN)C(=O)NCCCCCCCCCCCC(=O)O)NC(=O)[C@H](C(C)O)NC(=O)[C@H](C(C)C)NC(=O)[C@H](CC3CCCCC3)NC(=O)[C@H](CCN)NC(=O)[C@@H](CC(C)C)NC(=O)[C@H](CCCN)NC(=O)[C@H](CCCNC(N)=O)NC(=O)[C@H](Cc3ccc(-c4ccccc4)cc3)NC(=O)[C@H](C(C)C)NC2=O)c1 (stereo partly drawn) [Compound 3122] ({CH2CO}-[Dap]Y(Carboxymethyl)D[Phe(3-Me)]V[Bip][Cit][Orn][dL][Dab][Cha]V[Thr(3ξ)]C[Orn][12Ado]-OH; thioether N-14),19.3
4,Cc1cccc(C[C@@H]2NC(=O)[C@H](CC(=O)O)NC(=O)[C@H](Cc3ccc(OCC(=O)O)cc3)NC(=O)[C@H](CN)NC(=O)CSC[C@@H](C(=O)N[C@@H](CCCN)C(=O)NCCCCCCCCCCCCC(=O)O)NC(=O)[C@H](C(C)O)NC(=O)[C@H](C(C)C)NC(=O)[C@H](CC3CCCCC3)NC(=O)[C@H](CCN)NC(=O)[C@@H](CC(C)C)NC(=O)[C@H](CCCN)NC(=O)[C@H](CCCNC(N)=O)NC(=O)[C@H](Cc3ccc(-c4ccccc4)cc3)NC(=O)[C@H](C(C)C)NC2=O)c1 (stereo partly drawn) [Compound 3123] ({CH2CO}-[Dap]Y(Carboxymethyl)D[Phe(3-Me)]V[Bip][Cit][Orn][dL][Dab][Cha]V[Thr(3ξ)]C[Orn]-{NH(CH2)12COOH}; thioether N-14),82.9
5,Cc1cccc(C[C@@H]2NC(=O)[C@H](CC(=O)O)NC(=O)[C@H](Cc3ccc(OCC(=O)O)cc3)NC(=O)[C@H](CN)NC(=O)CSC[C@@H](C(=O)N[C@@H](CCCN)C(=O)NCCCCCCCCCCCCCCC(=O)O)NC(=O)[C@H](C(C)O)NC(=O)[C@H](C(C)C)NC(=O)[C@H](CC3CCCCC3)NC(=O)[C@H](CCN)NC(=O)[C@@H](CC(C)C)NC(=O)[C@H](CCCN)NC(=O)[C@H](CCCNC(N)=O)NC(=O)[C@H](Cc3ccc(-c4ccccc4)cc3)NC(=O)[C@H](C(C)C)NC2=O)c1 (stereo partly drawn) [Compound 3124] ({CH2CO}-[Dap]Y(Carboxymethyl)D[Phe(3-Me)]V[Bip][Cit][Orn][dL][Dab][Cha]V[Thr(3ξ)]C[Orn]-{NH(CH2)14COOH}; thioether N-14),281
6,Cc1cccc(C[C@@H]2NC(=O)[C@H](CC(=O)O)NC(=O)[C@H](Cc3ccc(OCC(=O)O)cc3)NC(=O)[C@H](CN)NC(=O)CSC[C@@H](C(=O)N[C@@H](CCN)C(=O)NCCCCCCCCCCCC(=O)O)NC(=O)[C@H](C(C)O)NC(=O)[C@H](C(C)C)NC(=O)[C@H](CC3CCCCC3)NC(=O)[C@H](CCN)NC(=O)[C@@H](CC(C)C)NC(=O)[C@H](CCCN)NC(=O)[C@H](CCCNC(N)=O)NC(=O)[C@H](Cc3ccc(-c4ccccc4)cc3)NC(=O)[C@H](C(C)C)NC2=O)c1 (stereo partly drawn) [Compound 3125] ({CH2CO}-[Dap]Y(Carboxymethyl)D[Phe(3-Me)]V[Bip][Cit][Orn][dL][Dab][Cha]V[Thr(3ξ)]C[Dab][12Ado]-OH; thioether N-14),29.1
7,Cc1cccc(C[C@@H]2NC(=O)[C@H](CC(=O)O)NC(=O)[C@H](Cc3ccc(OCC(=O)O)cc3)NC(=O)[C@H](CN)NC(=O)CSC[C@@H](C(=O)N[C@@H](CCN)C(=O)NCCCCCCCCCCCCCCC(=O)O)NC(=O)[C@H](C(C)O)NC(=O)[C@H](C(C)C)NC(=O)[C@H](CC3CCCCC3)NC(=O)[C@H](CCN)NC(=O)[C@@H](CC(C)C)NC(=O)[C@H](CCCN)NC(=O)[C@H](CCCNC(N)=O)NC(=O)[C@H](Cc3ccc(-c4ccccc4)cc3)NC(=O)[C@H](C(C)C)NC2=O)c1 (stereo partly drawn) [Compound 3127] ({CH2CO}-[Dap]Y(Carboxymethyl)D[Phe(3-Me)]V[Bip][Cit][Orn][dL][Dab][Cha]V[Thr(3ξ)]C[Dab]-{NH(CH2)14COOH}; thioether N-14),308
8,CC(C)C[C@H]1NC(=O)[C@H](CCCN)NC(=O)[C@H](C(C)C)NC(=O)[C@H](Cc2ccc(-c3ccccc3)cc2)NC(=O)[C@H](C(C)C)NC(=O)[C@H](Cc2c[nH]c3ccccc23)NC(=O)[C@H](CC(=O)O)NC(=O)[C@H](Cc2ccc(OCC(=O)O)cc2)NC(=O)[C@H](CN)NC(=O)CSC[C@@H](C(=O)NCCOCCOCC(=O)N[C@@H](CCCCN)C(=O)NCCCCCCCCCCC(=O)O)NC(=O)[C@H](C(C)O)NC(=O)[C@H](C(C)C)NC(=O)[C@H](CC2CCCCC2)NC(=O)[C@H](CC(N)=O)NC1=O (stereo partly drawn) [Compound 3128] ({CH2CO}-[Dap]Y(Carboxymethyl)DWV[Bip]V[Orn][dL]N[Cha]V[Thr(3ξ)]C[AEEA]K[Aun]-OH; thioether N-14),15.5
9,CC(C)C[C@H]1NC(=O)[C@H](CCCCN)NC(=O)[C@H](C(C)C)NC(=O)[C@H](Cc2ccc(-c3ccccc3)cc2)NC(=O)[C@H](C(C)C)NC(=O)[C@H](Cc2c[nH]c3ccccc23)NC(=O)[C@H](CC(=O)O)NC(=O)[C@H](Cc2ccc(OCC(=O)O)cc2)NC(=O)[C@H](CCCCNC(=N)N)NC(=O)CSC[C@@H](C(=O)NCCOCCOCC(=O)N[C@@H](CCCCN)C(=O)NCCCCCCCCCCC(=O)O)NC(=O)[C@H](CO)NC(=O)[C@H](C(C)C)NC(=O)[C@H](CC2CCCCC2)NC(=O)[C@H](CC(N)=O)NC1=O [Compound 3129] ({CH2CO}-[hArg]Y(Carboxymethyl)DWV[Bip]VK[dL]N[Cha]VSC[AEEA]K[Aun]-OH; thioether N-14),53.4
10,CC(C)C[C@H]1NC(=O)[C@H](CCCN)NC(=O)[C@H](C(C)C)NC(=O)[C@H](Cc2ccc(-c3ccccc3)cc2)NC(=O)[C@H](C(C)C)NC(=O)[C@H](Cc2c[nH]c3ccccc23)NC(=O)[C@H](CC(=O)O)NC(=O)[C@H](Cc2ccc(OCC(=O)O)cc2)NC(=O)[C@H](CCCCNC(=N)N)NC(=O)CSC[C@@H](C(=O)NCC(=O)NCCOCCOCC(=O)N[C@@H](CCCN)C(=O)NCCCCCCCCCCC(=O)O)NC(=O)[C@H](C(C)O)NC(=O)[C@H](C(C)C)NC(=O)[C@H](CC2CCCCC2)NC(=O)[C@H](CCN)NC1=O (stereo partly drawn) [Compound 3130] ({CH2CO}-[hArg]Y(Carboxymethyl)DWV[Bip]V[Orn][dL][Dab][Cha]V[Thr(3ξ)]CG[AEEA][Orn][Aun]-OH; thioether N-14),16.5
11,CC(C)C[C@H]1NC(=O)[C@H](CCCN)NC(=O)[C@H](CCCNC(N)=O)NC(=O)[C@H](Cc2ccc(-c3ccccc3)cc2)NC(=O)[C@H](C(C)C)NC(=O)[C@H](Cc2c[nH]c3ccccc23)NC(=O)[C@H](CC(=O)O)NC(=O)[C@H](Cc2ccc(OCC(=O)O)cc2)NC(=O)[C@H](CN)NC(=O)CSC[C@@H](C(=O)NCCOCCOCC(=O)N[C@@H](CCCCN)C(=O)NCCCCCCCCCCC(=O)O)NC(=O)[C@H](CCCNC(N)=O)NC(=O)[C@H](C(C)C)NC(=O)[C@H](CC2CCCCC2)NC(=O)[C@H](CCN)NC1=O [Compound 3146] ({CH2CO}-[Dap]Y(Carboxymethyl)DWV[Bip][Cit][Orn][dL][Dab][Cha]V[Cit]C[AEEA]K[Aun]-OH; thioether N-14),7.8
12,CC(C)C[C@H]1NC(=O)[C@H](CCCN)NC(=O)[C@H](C(C)C)NC(=O)[C@H](Cc2ccc(-c3ccccc3)cc2)NC(=O)[C@H](C(C)C)NC(=O)[C@H](Cc2c[nH]c3ccccc23)NC(=O)[C@H](CC(=O)O)NC(=O)[C@H](Cc2ccc(OCC(=O)O)cc2)NC(=O)[C@H](CN)NC(=O)CSC[C@@H](C(=O)NCCOCCOCC(=O)N[C@@H](CCCCN)C(=O)NCCCCCCCCCCC(=O)O)NC(=O)[C@H](C(C)O)NC(=O)[C@H](C(C)C)NC(=O)[C@H](CC2CCCCC2)NC(=O)[C@H](CC(=O)O)NC1=O (stereo partly drawn) [Compound 3147] ({CH2CO}-[Dap]Y(Carboxymethyl)DWV[Bip]V[Orn][dL]D[Cha]V[Thr(3ξ)]C[AEEA]K[Aun]-OH; thioether N-14),29.7
13,CC(C)C[C@H]1NC(=O)[C@H](CCCN)NC(=O)[C@H](C(C)C)NC(=O)[C@H](Cc2ccc(-c3ccccc3)cc2)NC(=O)[C@H](C(C)C)NC(=O)[C@H](Cc2c[nH]c3ccccc23)NC(=O)[C@H](CC(=O)O)NC(=O)[C@H](Cc2ccc(OCC(=O)O)cc2)NC(=O)[C@H](CCCNC(N)=O)NC(=O)CSC[C@@H](C(=O)N[C@@H](CCCCN)C(=O)NCCCCCCCCCCC(=O)O)NC(=O)[C@H](C(C)O)NC(=O)[C@H](C(C)C)NC(=O)[C@H](CC2CCCCC2)NC(=O)[C@H](Cc2cnc[nH]2)NC1=O (stereo partly drawn) [Compound 3148] ({CH2CO}-[Cit]Y(Carboxymethyl)DWV[Bip]V[Orn][dL]H[Cha]V[Thr(3ξ)]CK[Aun]-OH; thioether N-14),56.7
